Assay results: ChEMBL document CHEMBL1131743, “Structure-activity relationship for a series of 2-substituted 1,2,3,4-tetrahydro-9H-pyrido[3,4-b]indoles: potent subtype-selective inhibitors of N-methyl-D-aspartate (NMDA) receptors” (Bioorg Med Chem Lett, 1999)

Experiments:
[1] = Antagonist activity against rat 1A/2C subtype of N-methyl-D-aspartate (NMDA) receptor was determined by electrical assay in xenopus oocytes.; type: functional, cell-based; conditions: Oocyte
[2] = Antagonist activity against rat 1A/2A subtype of N-methyl-D-aspartate (NMDA) receptor was determined by electrical assay in xenopus oocytes.; type: functional, cell-based; conditions: Oocyte
[3] = target: Glutamate NMDA receptor; Grin1/Grin2b (Rattus norvegicus, UniProt P35439+Q00960); experiment: Antagonist activity against rat 1A/2B subtype of N-methyl-D-aspartate (NMDA) receptor in xenopus oocytes.; type: functional, cell-based, Oocyte
Chain of Glutamate NMDA receptor; Grin1/Grin2b (Q00960 whole entry, other chains not shown): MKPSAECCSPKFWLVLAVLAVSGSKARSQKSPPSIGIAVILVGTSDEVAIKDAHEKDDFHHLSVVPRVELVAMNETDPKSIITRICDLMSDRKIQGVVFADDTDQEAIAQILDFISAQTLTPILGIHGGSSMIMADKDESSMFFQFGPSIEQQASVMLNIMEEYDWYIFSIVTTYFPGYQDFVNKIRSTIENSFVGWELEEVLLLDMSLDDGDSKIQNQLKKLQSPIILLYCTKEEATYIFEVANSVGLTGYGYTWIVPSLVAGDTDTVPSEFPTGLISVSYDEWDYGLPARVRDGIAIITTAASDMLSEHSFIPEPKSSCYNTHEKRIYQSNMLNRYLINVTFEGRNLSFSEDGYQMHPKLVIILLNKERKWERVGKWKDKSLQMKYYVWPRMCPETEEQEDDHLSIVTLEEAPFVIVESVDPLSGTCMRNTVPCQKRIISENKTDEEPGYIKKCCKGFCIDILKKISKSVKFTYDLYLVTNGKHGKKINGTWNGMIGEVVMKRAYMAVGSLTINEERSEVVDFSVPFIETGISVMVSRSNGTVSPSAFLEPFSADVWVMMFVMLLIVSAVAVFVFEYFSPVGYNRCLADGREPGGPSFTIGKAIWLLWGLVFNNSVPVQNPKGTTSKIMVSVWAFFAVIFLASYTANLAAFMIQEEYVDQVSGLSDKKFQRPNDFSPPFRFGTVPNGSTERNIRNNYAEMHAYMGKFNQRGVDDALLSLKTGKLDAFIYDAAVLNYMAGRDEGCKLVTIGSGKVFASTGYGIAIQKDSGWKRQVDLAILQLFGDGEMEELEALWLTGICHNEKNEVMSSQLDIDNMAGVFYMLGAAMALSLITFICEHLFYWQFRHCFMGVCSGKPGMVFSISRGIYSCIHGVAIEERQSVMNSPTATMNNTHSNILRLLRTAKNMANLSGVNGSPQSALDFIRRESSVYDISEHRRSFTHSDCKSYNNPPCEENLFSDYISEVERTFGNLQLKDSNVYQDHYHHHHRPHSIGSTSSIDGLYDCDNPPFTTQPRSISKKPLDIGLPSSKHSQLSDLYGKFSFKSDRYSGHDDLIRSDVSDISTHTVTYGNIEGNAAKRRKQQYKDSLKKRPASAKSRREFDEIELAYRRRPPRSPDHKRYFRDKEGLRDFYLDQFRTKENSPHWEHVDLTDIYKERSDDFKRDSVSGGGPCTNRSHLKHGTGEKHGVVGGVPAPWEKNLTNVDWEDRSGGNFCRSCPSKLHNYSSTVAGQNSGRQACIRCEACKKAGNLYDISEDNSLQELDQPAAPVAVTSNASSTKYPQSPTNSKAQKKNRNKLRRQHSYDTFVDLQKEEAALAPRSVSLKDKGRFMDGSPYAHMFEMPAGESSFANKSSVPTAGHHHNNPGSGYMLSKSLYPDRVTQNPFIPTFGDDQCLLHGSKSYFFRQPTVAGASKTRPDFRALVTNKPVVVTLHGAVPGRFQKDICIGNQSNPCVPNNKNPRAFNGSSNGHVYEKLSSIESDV

IC50 [1] [µM] | IC50 [2] [µM] | IC50 [3] [µM] | SMILES
150 | 58 | 0.56 | Oc1ccc(CCCCN2CCc3c([nH]c4ccccc34)C2)cc1
170 | 42 | 0.087 | Oc1ccc(CCCN2CCc3c([nH]c4ccccc34)C2)cc1
67 | 57 | 0.05 | Oc1ccc2c3c([nH]c2c1)CN(CCCCc1ccccc1)CC3
140 | 74 | 3.8 | Oc1ccc(CCN2CCc3c([nH]c4ccccc34)C2)cc1
180 | 97 | 0.14 | Oc1ccc2[nH]c3c(c2c1)CCN(CCCCc1ccccc1)C3

More lines, now with the values behind:

SMILES | IC50 [1] [µM] | IC50 [2] [µM] | IC50 [3] [µM]
c1ccc(CCCCN2CCc3c([nH]c4ccccc34)C2)cc1 | 65 | 68 | 3.3
Oc1ccc(CCCNCCCCc2ccccc2)cc1 | – | – | 0.02
COc1ccc2[nH]c3c(c2c1)CCN(CCCCc1ccccc1)C3 | 132 | 110 | 14
